One assay concerns Interferon-α. In words: Induction of Interferon-α using fresh human whole blood (WB). The format is cell-based. The following applies: three donors, overnight incubation, cytokine released as % of 2 μM resiquimod control, read-out: mean pEC50 for IFNα (converted). On the procedure:
(§1) Assay for the Induction of Interferon-α and TNF-α using Fresh Human Whole Blood (WB)
(§2) Compounds were prepared at 100× required concentration in DMSO in flat-bottom microtitre plates at a volume of 1.5 μL. Columns 1-10 contained a 1 in 4 serial dilution of the test compound. Included on each plate was a serial dilution of the TLR7/8 agonist resiquimod as a standard and Column 11 contained 1.5 μl of 200 μM resiquimod (giving a 2 μM final concentration, used to define the approximate maximal response to resiquimod). Each compound was assayed in duplicate for each donor.
(§3) Incubation and Assays for Interferon-α and TNF-α
(§4) Blood samples from three human donors were collected into sodium heparin (10 U/ml). 150 μl of whole Blood was dispensed into Col 1 to 11 of assay plates containing 1.5 μl of test compound or standard in DMSO. Plates were placed in an incubator overnight (37° C., 95% air, 5% CO2). Following the overnight incubation, plates were removed from the incubator & mixed on an orbital shaker for approximately 1 minute. 100 μl of 0.9% saline was added to each well and the plates mixed again on an orbital shaker. Plates were then centrifuged (2500 rpm, 10 mins), after which a sample of plasma was removed using a Biomek FX and assayed for both IFN-α and TNF-α using the MSD (Mesoscale Discovery) electrochemiluminescence assay platform. The IFN-α assay was carried out similarly to that described above. The TNF-α assay was carried out as per kit instructions (Cat No K111BHB).
(§5) Cytokine released was expressed as a percentage of the 2 μM resiquimod control (column 11). This percentage was plotted against compound concentration and the pEC50 for the response determined by non-linear least squares curve fitting. For the IFN-α responses, generally a 4 parameter logistic model was selected. For the TNF responses where a clear maximum response was obtained (i.e. a well defined plateau in the response was observed) then a 4 parameter model was generally used. If the upper asymptote of the curve wasn't well defined then the curve fitting was generally constrained to a maximal response of 100% (i.e. to the response to 2 μM resiquimod) or to the response of the highest concentration tested if this was greater than the resiquimod response. Some curves were bell shaped for one or both cytokines and the cytokine data on the down slope of the bell shaped response (i.e. concentrations above those giving the maximal response) were generally excluded from the fit, usually with the exception of the concentration immediately above the peak response. Curve fitting thus concentrated on the up slope of the dose response curve.

The next assay relates to TNF-α. The assay is described as follows: Induction of TNF-α using fresh human whole blood (WB). The class given is cell-based. The following applies: three donors, overnight incubation, cytokine released as % of 2 μM resiquimod control, read-out: mean pEC50 for TNF-α (converted). How it is done: as §1, §2, §3, §4, §5

Where a name gives a salt, the structure may show the parent alone.

In the case of `CCCCc1nc(N)c2[nH]nc(CCCCCCN3CCCCC3)c2n1` [Example 1, 5-Butyl-3-(6-(piperidin-1-yl)hexyl)-1H-pyrazolo[4,3-d]pyrimidin-7-amine formate], the EC50 with Interferon-α was at most 1260 nM; in the assay with TNF-α it was at least 3980 nM.

Turning to `COCCc1nc(N)c2[nH]nc(CCCCCCN3CCCCC3)c2n1` [Example 2, 5-(2-Methoxyethyl)-3-(6-(piperidin-1-yl)hexyl)-1H-pyrazolo[4,3-d]pyrimidin-7-amine], the figures for the EC50 with Interferon-α and with TNF-α were at most 1260 nM and at least 3980 nM, respectively.

On to `COCCc1nc(N)c2[nH]nc(CCCCCCN3CCCC3)c2n1` [Example 4, 5-(2-Methoxyethyl)-3-(6-(pyrrolidin-1-yl)hexyl)-1H-pyrazolo[4,3-d]pyrimidin-7-amine], for which the EC50 with Interferon-α is at most 1260 nM; in the assay on TNF-α, at least 3980 nM.

As for `CCCCc1nc(N)c2[nH]nc(CCCCCN3CCCCC3)c2n1` [Example 5, 5-Butyl-3-(5-(piperidin-1-yl)pentyl)-1H-pyrazolo[4,3-d]pyrimidin-7-amine], the EC50 in the assay with Interferon-α was at most 1260 nM; with TNF-α it was at least 3980 nM.

In the case of `CCCCc1nc(N)c2[nH]nc(CCCCCN3CCCC3)c2n1` [Example 6, 5-Butyl-3-(5-(pyrrolidin-1-yl)pentyl)-1H-pyrazolo[4,3-d]pyrimidin-7-amine], the EC50 is at most 1260 nM with Interferon-α and at least 3980 nM in the assay with TNF-α.

As to `CCCCc1nc(N)c2[nH]nc(CCCCCCCN3CCCCC3)c2n1` [Example 7, 5-Butyl-3-(7-(piperidin-1-yl)heptyl)-1H-pyrazolo[4,3-d]pyrimidin-7-amine], the EC50 was at most 1260 nM in the assay on Interferon-α and at least 3980 nM in the assay with TNF-α.

Consider `CCCCc1nc(N)c2[nH]nc(CCCCCCCN3CCCC3)c2n1` [Example 8, 5-Butyl-3-(7-(pyrrolidin-1-yl)heptyl)-1H-pyrazolo[4,3-d]pyrimidin-7-amine], for which the values for the EC50 in the assay with Interferon-α and with TNF-α were at most 1260 nM and at least 3980 nM, respectively.

For `CCCCc1nc(N)c2[nH]nc(CCCCCCN3CCCCCC3)c2n1` [Example 9, 3-(6-(Azepan-1-yl)hexyl)-5-butyl-1H-pyrazolo[4,3-d]pyrimidin-7-amine], the EC50 was at most 1260 nM in the assay on Interferon-α and at least 3980 nM in the assay with TNF-α.

As to `CCCCc1nc(N)c2[nH]nc(CCCCCN3CCCCCC3)c2n1` [Example 10, 3-(5-(Azepan-1-yl)pentyl)-5-butyl-1H-pyrazolo[4,3-d]pyrimidin-7-amine], the EC50 in the assay on Interferon-α was at most 1260 nM; with TNF-α, at least 3980 nM.

For the compound `CCCCc1nc(N)c2[nH]nc(CCCCCCN3CC[C@H](F)C3)c2n1` [Example 11, (S)-5-Butyl-3-(6-(3-fluoropyrrolidin-1-yl)hexyl)-1H-pyrazolo[4,3-d]pyrimidin-7-amine], the EC50 in the assay on Interferon-α was at most 1260 nM; with TNF-α, at least 3980 nM.

As for `CCCCc1nc(N)c2[nH]nc(CCCCCN3CC[C@H](F)C3)c2n1` [Example 12, (S)-5-Butyl-3-(5-(3-fluoropyrrolidin-1-yl)pentyl)-1H-pyrazolo[4,3-d]pyrimidin-7-amine], the EC50 is at most 1260 nM in the assay with Interferon-α and at least 3980 nM with TNF-α.

With `CCCCc1nc(N)c2[nH]nc(CCCCCCN3CC[C@@H](F)C3)c2n1` [Example 13, (R)-5-Butyl-3-(6-(3-fluoropyrrolidin-1-yl)hexyl)-1H-pyrazolo[4,3-d]pyrimidin-7-amine formate], the values for the EC50 in the assay on Interferon-α and with TNF-α were at most 1260 nM and at least 3980 nM, respectively.

As for `CCCCc1nc(N)c2[nH]nc(CCCCCN3CC[C@@H](F)C3)c2n1` [Example 14, (R)-5-Butyl-3-(5-(3-fluoropyrrolidin-1-yl)pentyl)-1H-pyrazolo[4,3-d]pyrimidin-7-amine], the results for the EC50 in the assay with Interferon-α and with TNF-α were at most 1260 nM and at least 3980 nM, respectively.

Take `CCCCc1nc(N)c2[nH]nc(CCCCCCN3CCC(O)CC3)c2n1` [Example 15, 1-(6-(7-Amino-5-butyl-1H-pyrazolo[4,3-d]pyrimidin-3-yl)hexyl)piperidin-4-01]: the EC50 in the assay on Interferon-α is at most 1260 nM; in the assay with TNF-α, at least 3980 nM.

Take `CCCCc1nc(N)c2[nH]nc(CCCCCN3CCC(O)CC3)c2n1` [Example 16, 1-(5-(7-Amino-5-butyl-1H-pyrazolo[4,3-d]pyrimidin-3-yl)pentyl)piperidin-4-01]: the EC50 is at most 1260 nM in the assay on Interferon-α and at least 3980 nM with TNF-α.

Consider `CCCCc1nc(N)c2[nH]nc(CCCCCCN3CCC(F)CC3)c2n1` [Example 17, 5-Butyl-3-(6-(4-fluoropiperidin-1-yl)hexyl)-1H-pyrazolo[4,3-d]pyrimidin-7-amine formate], for which the EC50 with Interferon-α was at most 1260 nM; in the assay on TNF-α, at least 3980 nM.

In the case of `CCCCc1nc(N)c2[nH]nc(CCCCCN3CCC(F)CC3)c2n1` [Example 18, 5-Butyl-3-(5-(4-fluoropiperidin-1-yl)pentyl)-1H-pyrazolo[4,3-d]pyrimidin-7-amine], the EC50 in the assay on Interferon-α is at most 1260 nM; in the assay with TNF-α, at least 3980 nM.

For the origin of these results see patent publication US10022442B2, “Pyrazolopyrimidine compounds” (GlaxoSmithKline LLC, priority 2012, dated 2018).
